{"source": "ChEMBL document CHEMBL4339189", "about": "“Dissymmetric pyridyl-substituted 3,5-bis(arylidene)-4-piperidones as anti-hepatoma agents by inhibiting NF-κB pathway activation” (Eur J Med Chem, 2019)", "key": {"RAW264.7 [1]": {"tested_on": "RAW264.7", "test": "Cytotoxicity against mouse RAW264.7 cells assessed as reduction in cell viability at 6.0 uM incubated for 24 hrs by MTT assay", "format": "cell-based", "details": "raw264.7, 24 h"}, "HepG2 [2]": {"tested_on": "HepG2", "test": "Antitumor activity against human HepG2 cells xenografted in Balb/c nude mouse assessed as effect on tumor volume level at 0.1 mg/kg, ip administered every 2 days for 20 days and measured every 2 days", "format": "functional, organism-based"}, "HepG2 [3]": {"tested_on": "HepG2", "test": "Induction of apoptosis in human HepG2 cells assessed as increase in apoptotic cell population at 4.0 uM incubated for 24 hrs by Annexin V-FITC/propidium iodide staining based flow cytometry", "format": "functional"}, "HepG2 [4]": {"tested_on": "HepG2", "test": "Antitumor activity against human HepG2 cells xenografted in Balb/c nude mouse assessed as induction of wrinkled abnormalities on cell morphology at 10 mg/kg, ip administered every 2 days for 20 days and measured every 2 days by H and E staining based assay", "format": "functional, organism-based"}, "[5]": {"molecular_target": "Transcription factor p65 (Mus musculus) (UniProt Q04207)", "sequence (Q04207 whole entry)": "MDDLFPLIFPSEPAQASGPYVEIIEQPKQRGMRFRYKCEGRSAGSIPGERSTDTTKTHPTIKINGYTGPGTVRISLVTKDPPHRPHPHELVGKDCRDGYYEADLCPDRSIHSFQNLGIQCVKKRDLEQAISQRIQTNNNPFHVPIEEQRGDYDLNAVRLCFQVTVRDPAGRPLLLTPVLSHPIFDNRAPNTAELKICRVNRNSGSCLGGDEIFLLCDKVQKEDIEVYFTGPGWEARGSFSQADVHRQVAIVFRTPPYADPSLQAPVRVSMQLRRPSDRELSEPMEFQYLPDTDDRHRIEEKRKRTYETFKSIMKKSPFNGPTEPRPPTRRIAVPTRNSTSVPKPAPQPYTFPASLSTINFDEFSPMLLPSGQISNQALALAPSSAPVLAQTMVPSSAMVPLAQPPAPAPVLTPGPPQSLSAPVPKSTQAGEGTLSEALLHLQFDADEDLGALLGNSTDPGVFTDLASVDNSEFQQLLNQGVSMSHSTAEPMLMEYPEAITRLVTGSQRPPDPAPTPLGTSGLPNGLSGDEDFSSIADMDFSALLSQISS", "test": "Inhibition of NFkappaB activation in mouse RAW264.7 cells assessed as reduction in TNFalpha-induced p65 phosphorylation at 1 to 4 uM incubated for 2 hrs after pre-incubation with LPS for 15 mins by Western blot analysis", "format": "cell-based"}, "HepG2 [6]": {"tested_on": "HepG2", "test": "Induction of apoptosis in human HepG2 cells assessed as increase in apoptotic cell population at 4.0 uM incubated for 24 hrs by Annexin V-FITC/propidium iodide staining based flow cytometry relative to control", "format": "functional"}, "SMMC-7721 [7]": {"tested_on": "SMMC-7721", "test": "Induction of apoptosis in human SMMC7721 cells assessed as increase in apoptotic cell population at 4.0 uM incubated for 24 hrs by Annexin V-FITC/propidium iodide staining based flow cytometry", "format": "functional"}, "Mus musculus [8]": {"tested_on": "Mus musculus", "test": "Antiinflammatory activity in human HepG2 cells xenografted Balb/c nude mouse assessed as reduction in TNFalpha protein expression at 10 mg/kg, ip administered every 2 days for 20 days and measured every 2 days by immunohistochemistry", "format": "functional, organism-based"}, "[9]": {"molecular_target": "T1, NF-kappa-B inhibitor alpha (Mus musculus) (UniProt Q9Z1E3)", "T1 sequence (whole entry)": "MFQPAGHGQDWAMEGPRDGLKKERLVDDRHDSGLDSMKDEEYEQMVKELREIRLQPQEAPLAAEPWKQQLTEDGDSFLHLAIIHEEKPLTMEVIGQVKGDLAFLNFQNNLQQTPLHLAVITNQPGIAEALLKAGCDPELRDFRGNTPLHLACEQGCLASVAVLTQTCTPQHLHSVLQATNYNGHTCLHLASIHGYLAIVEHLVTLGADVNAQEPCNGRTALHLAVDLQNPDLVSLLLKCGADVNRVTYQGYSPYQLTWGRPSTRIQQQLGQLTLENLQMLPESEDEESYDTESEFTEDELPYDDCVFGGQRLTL", "test": "Inhibition of NFkappaB signalling activation in mouse RAW264.7 cells assessed as reduction in LPS-induced IkBalpha phosphorylation at 1 to 4 uM incubated for 2 hrs after pre-incubation with LPS for 15 mins by Western blot analysis", "format": "cell-based"}, "HepG2 [10]": {"tested_on": "HepG2", "test": "Antitumor activity against human HepG2 cells xenografted in Balb/c nude mouse assessed as effect on tumor volume level at 1 mg/kg, ip administered every 2 days for 20 days and measured every 2 days", "format": "functional, organism-based"}, "HepG2 [11]": {"tested_on": "HepG2", "test": "Cytotoxicity against human HepG2 cells assessed as reduction in cell viability incubated for 24 hrs by MTT assay", "format": "functional, cell-based"}, "[12]": {"test": "Toxicity in Balb/c nude mouse xenografted with human HepG2 cells assessed as increase in body weight at 0.1 to 10 mg/kg, ip administered every 2 days for 20 days and measured every 2 days", "format": "organism-based", "details": "in vivo"}, "HepG2 [13]": {"tested_on": "HepG2", "test": "Induction of apoptosis in human HepG2 cells assessed as reduction in Bcl-2 expression up to 4 uM after 24 hrs by Western blot analysis", "format": "functional, cell-based"}, "[14]": {"molecular_target": "T1, NF-kappa-B inhibitor alpha (Mus musculus)", "test": "Inhibition of NFkappaB signalling activation in mouse RAW264.7 cells assessed as reduction in […] IkBalpha phosphorylation at 1 to 4 uM incubated for 2 hrs after pre-incubation with LPS for 15 mins by Western blot analysis", "format": "cell-based"}, "RAW264.7 [15]": {"tested_on": "RAW264.7", "test": "Antiinflammatory activity in mouse RAW264.7 cells assessed as inhibition of LPS-stimulated TNF-alpha production at 6.0 uM preincubated for 2 hrs followed by LPS stimulaton measured after 22 hrs by ELISA relative to control", "format": "functional"}, "HepG2 [16]": {"tested_on": "HepG2", "test": "Induction of apoptosis in human HepG2 cells xenografted in Balb/c nude mouse assessed as reduction in Bcl-2 protein expression at 10 mg/kg, ip administered every 2 days for 20 days and measured every 2 days by immunohistochemistry", "format": "functional, organism-based"}, "HepG2 [17]": {"tested_on": "HepG2", "test": "Induction of apoptosis in human HepG2 cells xenografted in Balb/c nude mouse assessed as reduction in Bcl-2 protein expression at 0.1 mg/kg, ip administered every 2 days for 20 days and measured every 2 days by immunohistochemistry", "format": "functional, organism-based"}, "RAW264.7 [18]": {"tested_on": "RAW264.7", "test": "Antiinflammatory activity in mouse RAW264.7 cells assessed as inhibition of LPS-stimulated IL-6 production 6.0 uM preincubated for 2 hrs followed by LPS stimulaton measured after 22 hrs by ELISA relative to control", "format": "functional"}, "QGY-7703 [19]": {"tested_on": "QGY-7703", "test": "Cytotoxicity against human QGY7703 cells assessed as reduction in cell viability incubated for 24 hrs by MTT assay", "format": "functional, cell-based"}, "HepG2 [20]": {"tested_on": "HepG2", "test": "Antitumor activity against human HepG2 cells xenografted in Balb/c nude mouse assessed as induction of incomplete cells at 10 mg/kg, ip administered every 2 days for 20 days and measured every 2 days by H and E staining based assay", "format": "functional, organism-based"}, "SMMC-7721 [21]": {"tested_on": "SMMC-7721", "test": "Induction of apoptosis in human SMMC7721 cells assessed as increase in apoptotic cell population at 4.0 uM incubated for 24 hrs by Annexin V-FITC/propidium iodide staining based flow cytometry relative to control", "format": "functional"}, "[22]": {"test": "Cytotoxicity against human HHL5 cells assessed as reduction in cell viability incubated for 24 hrs by MTT assay", "format": "cell-based", "details": "HHL-5, 24 h"}, "HepG2 [23]": {"tested_on": "HepG2", "test": "Induction of apoptosis in human HepG2 cells assessed as increase in apoptotic cell population at 2.0 uM incubated for 24 hrs by Annexin V-FITC/propidium iodide staining based flow cytometry relative to control", "format": "functional"}, "SMMC-7721 [24]": {"tested_on": "SMMC-7721", "test": "Cytotoxicity against human SMMC7721 cells assessed as reduction in cell viability incubated for 24 hrs by MTT assay", "format": "functional, cell-based"}, "Mus musculus [25]": {"tested_on": "Mus musculus", "test": "Antiinflammatory activity in human HepG2 cells xenografted Balb/c nude mouse assessed as reduction in TNFalpha protein expression at 0.1 mg/kg, ip administered every 2 days for 20 days and measured every 2 days by immunohistochemistry", "format": "functional, organism-based"}, "QGY-7703 [26]": {"tested_on": "QGY-7703", "test": "Induction of apoptosis in human QGY7703 cells assessed as increase in apoptotic cell population at 2.0 uM incubated for 24 hrs by Annexin V-FITC/propidium iodide staining based flow cytometry relative to control", "format": "functional"}, "HepG2 [27]": {"tested_on": "HepG2", "test": "Antitumor activity against human HepG2 cells xenografted in Balb/c nude mouse assessed as tumor volume level at 10 mg/kg, ip administered every 2 days for 20 days and measured every 2 days", "format": "functional"}, "QGY-7703 [28]": {"tested_on": "QGY-7703", "test": "Induction of apoptosis in human QGY7703 cells assessed as increase in apoptotic cell population at 4.0 uM incubated for 24 hrs by Annexin V-FITC/propidium iodide staining based flow cytometry", "format": "functional"}, "HepG2 [29]": {"tested_on": "HepG2", "test": "Induction of apoptosis in human HepG2 cells xenografted in Balb/c nude mouse assessed as reduction in Bcl-2 protein expression at 1 mg/kg, ip administered every 2 days for 20 days and measured every 2 days by immunohistochemistry", "format": "functional, organism-based"}}, "note": "Calls of active or inactive are those of the source. No cut-off for these calls is given here."}
{"smiles": "O=C1/C(=C/c2cccnc2)CN(S(=O)(=O)c2ccc(C(F)(F)F)cc2)C/C1=C\\c1ccccc1C(F)(F)F", "values": [{"measurement": "Activity", "setting": "RAW264.7 [1]", "result": "Non-Toxic"}, {"measurement": "Activity", "setting": "HepG2 [2]", "result": "inactive"}, {"measurement": "Activity", "setting": "HepG2 [3]", "result": "Dose-dependent effect"}, {"measurement": "Activity", "setting": "HepG2 [4]", "result": "Active"}, {"measurement": "inhibition", "setting": "[5]", "result": "Dose-dependent effect"}, {"measurement": "Activity", "setting": "HepG2 [6]", "result": ">70", "unit": "%"}, {"measurement": "Activity", "setting": "SMMC-7721 [7]", "result": "Dose-dependent effect"}, {"measurement": "Activity", "setting": "Mus musculus [8]", "result": "Active"}, {"measurement": "inhibition", "setting": "[9]", "result": "Dose-dependent effect"}, {"measurement": "Activity", "setting": "HepG2 [10]", "result": "inactive"}, {"measurement": "Activity", "setting": "HepG2 [11]", "result": "Dose-dependent effect"}, {"measurement": "IC50", "setting": "HepG2 [11]; HepG2, 24 h", "result": 1.71, "unit": "µM"}, {"measurement": "Activity", "setting": "[12]", "result": "Non-Toxic"}, {"measurement": "Activity", "setting": "HepG2 [13]", "result": "Dose-dependent effect"}, {"measurement": "inhibition", "setting": "[14]", "result": "Dose-dependent effect"}, {"measurement": "inhibition at 6 µM", "setting": "RAW264.7 [15]", "result": "≤ 15", "unit": "%"}, {"measurement": "Activity", "setting": "HepG2 [16]", "result": "Active"}, {"measurement": "Activity", "setting": "HepG2 [17]", "result": "inactive"}, {"measurement": "inhibition (INH)", "setting": "RAW264.7 [18]", "result": "<=15%"}, {"measurement": "Activity", "setting": "QGY-7703 [19]", "result": "Dose-dependent effect"}, {"measurement": "IC50", "setting": "QGY-7703 [19]; QGY-7703, 24 h", "result": 1.5, "unit": "µM"}, {"measurement": "Activity", "setting": "HepG2 [20]", "result": "Active"}, {"measurement": "Activity", "setting": "SMMC-7721 [21]", "result": ">70", "unit": "%"}, {"measurement": "IC50", "setting": "[22]", "result": 15.8, "unit": "µM"}, {"measurement": "Activity", "setting": "HepG2 [23]", "result": 40, "unit": "%"}, {"measurement": "Activity", "setting": "SMMC-7721 [24]", "result": "Dose-dependent effect"}, {"measurement": "IC50", "setting": "SMMC-7721 [24]; SMMC-7721, 24 h", "result": 1.73, "unit": "µM"}, {"measurement": "Activity", "setting": "Mus musculus [25]", "result": "inactive"}, {"measurement": "Activity", "setting": "QGY-7703 [26]", "result": 58, "unit": "%"}, {"measurement": "Activity", "setting": "HepG2 [27]", "result": "<200", "unit": "mm3"}, {"measurement": "Activity", "setting": "QGY-7703 [28]", "result": "Dose-dependent effect"}, {"measurement": "Activity", "setting": "HepG2 [29]", "result": "Active"}]}
